Assay results: patent publication US7429660B2, “ATM inhibitors” (Kudos Pharmaceuticals Limited, priority 2003, dated 2008)

biological target: T1, ATM protein immunoprecipitated from HeLa cell nuclear extract (Homo sapiens, UniProt Q13315); experiment: In vitro ATM inhibition assay (phosphorylation of GSTp53N66 on serine 15, chemiluminescent detection); assay type: biochemical; conditions: read-out: IC50 values (the concentration at which 50% of the enzyme activity is inhibited), ATM inhibition
T1 construct: ATM protein was immunoprecipitated from HeLa cell nuclear extract; endogenous in cells; host or cells: HeLa cell nuclear extract (immunoprecipitated with rabbit polyclonal anti-ATM antiserum)
T1 sequence (Q13315 whole entry): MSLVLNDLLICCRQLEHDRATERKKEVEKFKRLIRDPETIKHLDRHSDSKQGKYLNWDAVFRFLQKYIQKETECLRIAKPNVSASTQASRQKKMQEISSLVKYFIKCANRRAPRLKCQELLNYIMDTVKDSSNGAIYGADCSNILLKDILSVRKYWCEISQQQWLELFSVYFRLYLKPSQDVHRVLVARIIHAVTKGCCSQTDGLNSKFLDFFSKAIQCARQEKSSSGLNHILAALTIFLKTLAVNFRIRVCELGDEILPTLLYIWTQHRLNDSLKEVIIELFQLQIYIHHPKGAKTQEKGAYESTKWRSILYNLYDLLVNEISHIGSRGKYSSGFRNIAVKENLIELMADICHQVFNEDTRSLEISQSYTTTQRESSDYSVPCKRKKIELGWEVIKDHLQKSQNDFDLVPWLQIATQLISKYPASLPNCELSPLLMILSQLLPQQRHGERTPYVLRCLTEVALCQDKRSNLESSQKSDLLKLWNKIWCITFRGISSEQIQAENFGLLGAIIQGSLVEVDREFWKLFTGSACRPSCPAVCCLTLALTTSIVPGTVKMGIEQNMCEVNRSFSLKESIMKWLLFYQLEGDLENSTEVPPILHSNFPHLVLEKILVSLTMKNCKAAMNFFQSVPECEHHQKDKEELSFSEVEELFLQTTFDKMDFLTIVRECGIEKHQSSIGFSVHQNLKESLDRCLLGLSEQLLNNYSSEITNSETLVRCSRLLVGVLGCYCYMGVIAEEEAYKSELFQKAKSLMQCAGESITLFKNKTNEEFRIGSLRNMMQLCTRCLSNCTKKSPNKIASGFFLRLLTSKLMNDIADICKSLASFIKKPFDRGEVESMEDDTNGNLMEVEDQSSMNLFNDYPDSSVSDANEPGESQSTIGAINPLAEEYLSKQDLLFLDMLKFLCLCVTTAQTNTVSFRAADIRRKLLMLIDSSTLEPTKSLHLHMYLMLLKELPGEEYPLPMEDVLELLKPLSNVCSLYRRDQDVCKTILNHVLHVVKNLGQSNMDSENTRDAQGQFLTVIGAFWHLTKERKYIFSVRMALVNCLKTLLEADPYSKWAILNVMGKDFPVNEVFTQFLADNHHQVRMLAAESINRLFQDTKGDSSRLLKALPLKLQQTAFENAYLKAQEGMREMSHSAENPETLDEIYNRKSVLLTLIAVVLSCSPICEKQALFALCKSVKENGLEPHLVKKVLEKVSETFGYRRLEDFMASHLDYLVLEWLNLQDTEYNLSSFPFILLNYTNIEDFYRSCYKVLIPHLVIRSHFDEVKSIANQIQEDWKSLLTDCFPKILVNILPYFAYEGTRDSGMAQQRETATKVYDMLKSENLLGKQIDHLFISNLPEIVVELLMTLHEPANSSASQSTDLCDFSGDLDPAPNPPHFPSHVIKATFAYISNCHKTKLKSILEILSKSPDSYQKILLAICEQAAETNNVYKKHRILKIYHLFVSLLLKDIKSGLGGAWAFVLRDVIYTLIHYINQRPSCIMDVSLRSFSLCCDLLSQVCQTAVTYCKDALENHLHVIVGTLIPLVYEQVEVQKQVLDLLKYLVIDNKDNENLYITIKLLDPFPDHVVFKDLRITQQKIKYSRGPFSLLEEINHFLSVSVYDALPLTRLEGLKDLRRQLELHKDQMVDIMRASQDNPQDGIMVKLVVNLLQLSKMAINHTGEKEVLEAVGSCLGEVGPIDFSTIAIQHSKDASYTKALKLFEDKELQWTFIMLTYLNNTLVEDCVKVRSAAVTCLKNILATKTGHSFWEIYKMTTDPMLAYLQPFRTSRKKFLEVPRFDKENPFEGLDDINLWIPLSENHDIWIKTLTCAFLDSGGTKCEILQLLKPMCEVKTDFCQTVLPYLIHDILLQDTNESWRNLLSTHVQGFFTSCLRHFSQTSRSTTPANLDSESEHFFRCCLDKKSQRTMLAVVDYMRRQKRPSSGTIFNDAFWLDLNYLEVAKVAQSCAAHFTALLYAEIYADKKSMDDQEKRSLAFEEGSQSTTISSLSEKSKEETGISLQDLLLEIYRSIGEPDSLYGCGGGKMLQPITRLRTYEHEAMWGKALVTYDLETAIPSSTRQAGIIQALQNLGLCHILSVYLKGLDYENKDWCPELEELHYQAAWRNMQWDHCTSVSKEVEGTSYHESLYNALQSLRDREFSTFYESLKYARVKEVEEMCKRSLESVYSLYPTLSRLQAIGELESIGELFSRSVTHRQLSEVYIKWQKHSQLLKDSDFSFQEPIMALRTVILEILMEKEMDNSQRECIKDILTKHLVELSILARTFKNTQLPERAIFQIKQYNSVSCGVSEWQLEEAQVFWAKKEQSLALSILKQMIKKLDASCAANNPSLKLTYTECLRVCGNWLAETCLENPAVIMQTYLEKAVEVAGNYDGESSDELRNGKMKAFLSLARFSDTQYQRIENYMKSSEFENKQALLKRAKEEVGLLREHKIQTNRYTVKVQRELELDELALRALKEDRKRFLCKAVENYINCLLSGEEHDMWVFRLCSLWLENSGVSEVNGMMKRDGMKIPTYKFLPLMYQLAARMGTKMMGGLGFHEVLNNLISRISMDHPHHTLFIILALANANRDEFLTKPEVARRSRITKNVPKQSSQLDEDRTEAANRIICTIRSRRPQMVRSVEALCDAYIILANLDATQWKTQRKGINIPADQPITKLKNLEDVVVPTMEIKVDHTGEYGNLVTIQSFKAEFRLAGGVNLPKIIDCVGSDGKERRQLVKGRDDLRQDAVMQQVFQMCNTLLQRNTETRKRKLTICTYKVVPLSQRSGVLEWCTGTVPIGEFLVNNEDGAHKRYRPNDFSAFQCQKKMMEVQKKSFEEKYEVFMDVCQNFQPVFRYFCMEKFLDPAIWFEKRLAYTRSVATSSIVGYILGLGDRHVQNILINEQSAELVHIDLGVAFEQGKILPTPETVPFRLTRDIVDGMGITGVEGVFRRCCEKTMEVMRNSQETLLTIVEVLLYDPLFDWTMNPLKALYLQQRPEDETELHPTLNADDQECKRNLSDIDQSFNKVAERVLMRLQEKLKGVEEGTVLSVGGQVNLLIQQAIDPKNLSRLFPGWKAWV
Experimental: In order to assess the inhibitory action of the compounds against ATM in vitro, the following assay was used to determine IC50 values. ATM protein was immunoprecipitated from HeLa cell nuclear extract using rabbit polyclonal anti-sera raised to the C-terminal ˜500 amino-acid residues of the human ATM protein. […] 10 μl of immunoprecipitated ATM in Buffer C (50 mM Hepes, pH 7.4, 6 mM MgCl2, 150 mM NaCl, 0.1 mM sodium orthovanadate, 4 mM MnCl2, 0.1 mM dithiothreitol, 10% glycerol) was added to 32.5 μl of buffer C containing 1 μg of the ATM substrate GSTp53N66 in a V-bottomed 96 well polypropylene plate. The GSTp53N66 substrate is the amino terminal 66 amino acid residues of human wild type p53 fused to glutathione S-transferase. […] Varying concentrations of inhibitor were then added. […] After 10 minutes of incubation at 37° C., the reactions were initiated by the addition of 5 μl of 500 μM Na-ATP. After 1 hour with shaking at 37° C., 150 μl of phosphate buffered saline (PBS) was added to the reaction and the plate centrifuged at 1500 rpm for 10 minutes. 5 μl of the reaction was then transferred to a 96 well opaque white plate containing 45 μl of PBS to allow the GSTp53N66 substrate to bind to the plate wells. The plate was covered and incubated at room temperature for 1 hour with shaking before discarding the contents. The plate wells were washed twice by the addition of PBS prior to the addition of 3% (w/v) bovine serum albumin (BSA) in PBS. The plate was incubated at room temperature for 1 hour with shaking before discarding the contents and washing twice with PBS. To the wells, 50 μl of a 1:10,000 dilution of primary phosphoserine-15 antibody (Cell Signaling Technology, #9284L) in 3% BSA/PBS was added to detect the phosphorylation event on the serine 15 residue of p53 elicited by the ATM kinase. […] The wells were then washed four times with PBS before the addition of chemiluminescence reagent (NEN Renaissance, NEL105). The plate was then shaken briefly, covered with a transparent plate seal and transferred to a TopCount NXT for chemiluminescent counting. Counts per second, following a one second counting time, were recorded for each reaction.
The enzyme activity for each compound is then calculated using the following equation:
[formula] Results In vitro ATM assays
Compounds were assayed for ATM inhibition activity using the method described above. […] These are determined over a range of different concentrations, normally from 100 μM down to 0.1 nM. Such IC50 values are used as comparative values to identify increased compound potencies.

IC50, < 0.2 µM:
O=C(CCN1CCCCCC1)Nc1ccc2c(c1)Sc1cccc(-c3cc(=O)cc(N4CCOCC4)o3)c1S2 [Compound 101], O=C(Nc1ccc2c(c1)Sc1cccc(-c3cc(=O)cc(N4CCOCC4)o3)c1S2)C1CC1 [Compound 24], Cc1ccccc1N1CCN(CCCN2c3ccccc3Sc3c(-c4cc(=O)cc(N5CCOCC5)o4)cccc32)CC1 [Compound 289], CCOC(=O)CN1CCN(CCCN2c3ccccc3Sc3c(-c4cc(=O)cc(N5CCOCC5)o4)cccc32)CC1=O [Compound 299], CCN1CCN(C(=O)COc2ccc3c(c2)Sc2cccc(-c4cc(=O)cc(N5CCOCC5)o4)c2S3)CC1 [Compound 438], NC(=O)CNCCC(=O)Nc1ccc2c(c1)Sc1cccc(-c3cc(=O)cc(N4CCOCC4)o3)c1S2 [Compound 125], O=C(COc1ccc2c(c1)Sc1cccc(-c3cc(=O)cc(N4CCOCC4)o3)c1S2)NC1CCC1 [Compound 405], O=C(Cc1cccs1)Nc1ccc2c(c1)Sc1cccc(-c3cc(=O)cc(N4CCOCC4)o3)c1S2 [Compound 33], CCCNS(=O)(=O)c1ccc2c(c1)Cc1cccc(-c3cc(=O)cc(N4CCOCC4)o3)c1S2 [Compound 458], O=c1cc(-c2cccc3c2Sc2ccccc2N3CCCNCC2CCCO2)oc(N2CCOCC2)c1 (stereo not drawn) [Compound 240], O=c1cc(-c2cccc3c2Sc2ccc(S(=O)(=O)N(CCO)CCO)cc2C3)oc(N2CCOCC2)c1 [Compound 490], CC(=O)N1CCN(CCOc2ccc3c(c2)Sc2cccc(-c4cc(=O)cc(N5CCOCC5)o4)c2S3)CC1 [Compound 378], CC(=O)Oc1ccccc1C(=O)Nc1ccc2c(c1)Sc1cccc(-c3cc(=O)cc(N4CCOCC4)o3)c1S2 [Compound 39], O=c1cc(-c2cccc3c2Sc2ccc(S(=O)(=O)Nc4cccnc4)cc2C3)oc(N2CCOCC2)c1 [Compound 472], CN(C)CC(=O)Nc1ccc2c(c1)Sc1cccc(-c3cc(=O)cc(N4CCOCC4)o3)c1S2 [Compound 69], O=c1cc(-c2cccc3c2Sc2ccccc2N3CCCNCC2CCCCCC2O)oc(N2CCOCC2)c1 (stereo not drawn) [Compound 326], CSCCNC(=O)COc1ccc2c(c1)Cc1cccc(-c3cc(=O)cc(N4CCOCC4)o3)c1S2 [Compound 500], CC(=O)OC(C(=O)Nc1ccc2c(c1)Sc1cccc(-c3cc(=O)cc(N4CCOCC4)o3)c1S2)c1ccccc1 (stereo not drawn) [Compound 43], O=C(COc1ccc2c(c1)Cc1cccc(-c3cc(=O)cc(N4CCOCC4)o3)c1S2)N1CCCCCC1 [Compound 532], CN(C)CCN(C)C(=O)COc1ccc2c(c1)Sc1cccc(-c3cc(=O)cc(N4CCOCC4)o3)c1S2 [Compound 434], O=C(CN1CCN(c2ccc(F)cc2)CC1)Nc1ccc2c(c1)Cc1cccc(-c3cc(=O)cc(N4CCOCC4)o3)c1S2 [Compound 344], O=C(CCNCCCN1CCOCC1)Nc1ccc2c(c1)Sc1cccc(-c3cc(=O)cc(N4CCOCC4)o3)c1S2 [Compound 102], COC(=O)CCCC(=O)Nc1ccc2c(c1)Sc1cccc(-c3cc(=O)cc(N4CCOCC4)o3)c1S2 [Compound 26], CC(C)(C)OC(=O)N1CCC(NCCCN2c3ccccc3Sc3c(-c4cc(=O)cc(N5CCOCC5)o4)cccc32)CC1 [Compound 311], COCCN1CCN(CC(=O)Nc2ccc3c(c2)Sc2cccc(-c4cc(=O)cc(N5CCOCC5)o4)c2S3)CC1 [Compound 78], CN(C)CCN1CCN(CCCN2c3ccccc3Sc3c(-c4cc(=O)cc(N5CCOCC5)o4)cccc32)CC1 [Compound 304], O=C(c1ccc2c(c1)Sc1cccc(-c3cc(=O)cc(N4CCOCC4)o3)c1S2)N1CCN(C(=O)c2ccco2)CC1 [Compound 18], O=c1cc(-c2cccc3c2Sc2ccccc2N3CCCN2CCN(c3ncccn3)CC2)oc(N2CCOCC2)c1 [Compound 295], O=c1cc(-c2cccc3c2Sc2ccccc2N3CCCN2CCN(CCOCCO)CC2)oc(N2CCOCC2)c1 [Compound 292], CN1CCCC1CCNCCC(=O)Nc1ccc2c(c1)Sc1cccc(-c3cc(=O)cc(N4CCOCC4)o3)c1S2 (stereo not drawn) [Compound 114], COCCN(CCOC)CC(=O)Nc1ccc2c(c1)Sc1cccc(-c3cc(=O)cc(N4CCOCC4)o3)c1S2 [Compound 56], O=C(Nc1ccc2c(c1)Sc1cccc(-c3cc(=O)cc(N4CCOCC4)o3)c1S2)c1cccnc1 [Compound 28], CN1CCCN(CCCN2c3ccccc3Sc3c(-c4cc(=O)cc(N5CCOCC5)o4)cccc32)CC1 [Compound 331], O=c1cc(-c2cccc3c2Sc2ccccc2N3CCCNc2nc(-c3ccccc3)ns2)oc(N2CCOCC2)c1 [Compound 330], O=c1cc(-c2cccc3c2Sc2ccccc2N3CCCN2CCN(CCO)CC2)oc(N2CCOCC2)c1 [Compound 300], O=c1cc(-c2ccc(OCCNCCN3CCN(Cc4ccccc4)CC3)c3c2Sc2ccccc2S3)oc(N2CCOCC2)c1 [Compound 164], O=C(CCN1CCN(c2ccccn2)CC1)Nc1ccc2c(c1)Cc1cccc(-c3cc(=O)cc(N4CCOCC4)o3)c1S2 [Compound 353], O=c1cc(-c2ccc(OCCNN3CCOCC3)c3c2Sc2ccccc2S3)oc(N2CCOCC2)c1 [Compound 153], O=C(CN1CCN(c2ncccn2)CC1)Nc1ccc2c(c1)Cc1cccc(-c3cc(=O)cc(N4CCOCC4)o3)c1S2 [Compound 345], CCN1CCN(CC(=O)Nc2ccc3c(c2)Sc2cccc(-c4cc(=O)cc(N5CCOCC5)o4)c2S3)CC1 [Compound 81], CC(C)(C)OC(=O)N1CCCN(CCCN2c3ccccc3Sc3c(-c4cc(=O)cc(N5CCOCC5)o4)cccc32)CC1 [Compound 333], O=C(COc1ccc2c(c1)Sc1cccc(-c3cc(=O)cc(N4CCOCC4)o3)c1S2)NC(CO)(CO)CO [Compound 410], NCCNCC(=O)Nc1ccc2c(c1)Sc1cccc(-c3cc(=O)cc(N4CCOCC4)o3)c1S2 [Compound 58], COCCCNCCCN1c2ccccc2Sc2c(-c3cc(=O)cc(N4CCOCC4)o3)cccc21 [Compound 285], CCNCCCOc1ccc(-c2cc(=O)cc(N3CCOCC3)o2)c2c1Sc1ccccc1S2 [Compound 172], O=c1cc(-c2cccc3c2Sc2ccccc2N3CCCN2CCNCC2)oc(N2CCOCC2)c1 [Compound 303], O=C(CN1CCCC1)Nc1ccc2c(c1)Sc1cccc(-c3cc(=O)cc(N4CCOCC4)o3)c1S2 [Compound 59], CCN(CC(=O)Nc1ccc2c(c1)Sc1cccc(-c3cc(=O)cc(N4CCOCC4)o3)c1S2)Cc1ccncc1 [Compound 72], O=C(COc1ccc2c(c1)Cc1cccc(-c3cc(=O)cc(N4CCOCC4)o3)c1S2)N1CCNCC1 [Compound 528], O=c1cc(-c2cccc3c2Sc2ccccc2N3CCCNCCN2CCOCC2)oc(N2CCOCC2)c1 [Compound 272], CN(C)CCN1CCN(CCC(=O)Nc2ccc3c(c2)Cc2cccc(-c4cc(=O)cc(N5CCOCC5)o4)c2S3)CC1 [Compound 356]
